Reference: ChEMBL document CHEMBL1141190, “Synthesis and structure-activity relationships of 1,2,4-triazoles as a novel class of potent tubulin polymerization inhibitors” (Bioorg Med Chem Lett, 2005)
pEC50, pKi: −log10 of the molar value.

Assays:
A-431 [1] = assay: Cell cycle arrest in A431 cells by accumulation at G2/M phase cell; format: functional, cell-based; settings: Homo sapiens
Tubulin = assay: Displacement of [3H]colchicine from tubulin; format: protein-complex assay, Homo sapiens
A-431 [2] = assay: Cell cycle arrest in A431 cells by accumulation at G2/M phase cell at 0.1uM; format: functional; settings: Homo sapiens
Tubulin (Bos taurus) [3] = target: T1, Tubulin (Bos taurus) (UniProt Q6B856+Q862L2+Q862F3); settings: at 10 µM
Description: Inhibition of tubulin polymerization in bovine brain at 10 uM

Tubulin (Bos taurus) [4] = target: T1, Tubulin (Bos taurus); assay: Inhibition of tubulin polymerization in bovine brain at 3.33 uM
NCI-H460 = assay: Antiproliferative activity against NCI-H460 tumor cells by sulforhodamine B assay; format: functional; settings: Homo sapiens
DU-145 = assay: Antiproliferative activity against DU145 tumor cells by sulforhodamine B assay; format: functional; settings: Homo sapiens
DLD-1 = assay: Antiproliferative activity against DLD1 tumor cells by sulforhodamine B assay; format: functional; settings: Homo sapiens
A498 = assay: Antiproliferative activity against A498 tumor cells by sulforhodamine B assay; format: functional; settings: Homo sapiens
LoVo = assay: Antiproliferative activity against LoVo tumor cells by sulforhodamine B assay; format: functional; settings: Homo sapiens
A-431 [5] = assay: Antiproliferative activity against A431 tumor cells by sulforhodamine B assay; format: functional; settings: Homo sapiens
SNB-19 = assay: Antiproliferative activity against SNB19 tumor cells by sulforhodamine B assay; format: functional; settings: Homo sapiens
NCI/ADR-RES = assay: Antiproliferative activity against NCI/ADR-RES tumor cells by sulforhodamine B assay; format: functional; settings: Homo sapiens
SK-OV-3 = assay: Antiproliferative activity against SKOV3 tumor cells by sulforhodamine B assay; format: functional; settings: Homo sapiens
HCT-116 = assay: Antiproliferative activity against HCT116 tumor cells by sulforhodamine B assay; format: functional; settings: Homo sapiens

SMILES | pEC50 (A-431 [1]) | inhibition (Tubulin (Bos taurus) [3]) | inhibition (Tubulin (Bos taurus) [4]) | inhibition at 0.1 µM (A-431 [2]) | also measured
COc1cc2c(c(OC)c1OC)-c1ccc(O)cc1[C@@H](N)CC2 [COLCHINOL] | 7.36 | – | – | – | pKi (Tubulin): 5.73
Fc1ccc(CNc2ncccc2-c2n[nH]c(Nc3ccc4c(c3)OCO4)n2)cc1F | – | 84% | – | 23% | –
COc1cc(Nc2ncccc2-c2nnc(Nc3ccc4c(c3)OCCO4)n2C)cc(OC)c1 | 6.62 | – | 64% | 25% | –
COc1ccc(/C=C\c2cc(OC)c(OC)c(OC)c2)cc1O [COMBRETASTATIN A4] | – | – | – | 88% | –
COc1cc(Nc2ncccc2-c2nnc(Nc3ccc4c(c3)OCCO4)[nH]2)cc(OC)c1 | – | – | – | – | pKi (Tubulin): 6.80
COc1cc(OC)cc(Oc2ncccc2-c2n[nH]c(Nc3ccc(C#N)cc3)n2)c1 | – | 97% | 57% | 27% | –
COc1cc(OC)cc(Oc2ncccc2-c2n[nH]c(Nc3ccc(N(C)C)cc3)n2)c1 | 7.51 | 98% | 76% | 86% | –
Fc1ccc(CNc2ncccc2-c2n[nH]c(Nc3ccc4c(c3)OCCO4)n2)cc1F | – | 84% | – | 32% | –
COc1cc(Nc2ncncc2-c2n[nH]c(Nc3ccc4c(c3)OCCO4)n2)cc(OC)c1 | 7.28 | 100% | – | 68% | –
COc1cc(Oc2ncccc2-c2n[nH]c(Nc3ccc4c(c3)OCO4)n2)cc(OC)c1OC | 7.80 | – | 89% | 86% | –
COc1cc(O)cc(Oc2ncccc2-c2n[nH]c(Nc3ccc4c(c3)OCO4)n2)c1 | 7.92 | – | 80% | 83% | –
COc1cc(OC)cc(Oc2ncncc2-c2n[nH]c(Nc3ccc4c(c3)OCCO4)n2)c1 | 7.36 | – | 69% | 83% | –
c1cncc(CCNc2ncccc2-c2n[nH]c(Nc3ccc4c(c3)OCCO4)n2)c1 | – | 23% | – | – | –
COc1cc(OC)cc(Oc2ncccc2-c2n[nH]c(NCc3ccc4c(c3)OCO4)n2)c1 | – | – | 90% | 24% | –
COc1cc(OC)cc(Oc2ccncc2-c2n[nH]c(Nc3ccc4c(c3)OCCO4)n2)c1 | 7.89 | – | 96% | 86% | –
COc1cc(Nc2nccnc2-c2n[nH]c(Nc3ccc4c(c3)OCO4)n2)cc(OC)c1 | 7.77 | 89% | – | 85% | –
COc1cc(OC)cc(Oc2ncccc2-c2n[nH]c(Nc3cc(F)cc(F)c3)n2)c1 | – | 87% | 51% | 27% | –
c1cnc(NCc2ccncc2)c(-c2n[nH]c(Nc3ccc4c(c3)OCO4)n2)c1 | 7.18 | 84% | – | 70% | –

SMILES | pEC50 (A-431 [1]) | inhibition (Tubulin (Bos taurus) [3]) | inhibition (Tubulin (Bos taurus) [4]) | inhibition at 0.1 µM (A-431 [2]) | also measured
COc1cc2c(c(OC)c1OC)-c1ccc(OC)c(=O)cc1[C@@H](NC(C)=O)CC2 [COLCHICINE] | 8.55 | – | – | 80% | –
c1ccc(Oc2ncccc2-c2nc(Nc3ccc4c(c3)OCO4)n[nH]2)nc1 | – | – | 43% | 21% | –
Fc1cc(F)cc(Oc2ncccc2-c2n[nH]c(Nc3ccc4c(c3)OCO4)n2)c1 | – | – | 97% | 23% | –
COc1cc(Nc2ccncc2-c2n[nH]c(Nc3ccc4c(c3)OCCO4)n2)cc(OC)c1 | 8.28 | 100% | – | 77% | –
CN(C)c1cccc(Oc2ncccc2-c2n[nH]c(Nc3ccc4c(c3)OCO4)n2)c1 | 7.96 | – | 53% | 63% | –
COc1cc(Nc2ccncc2-c2n[nH]c(Nc3ccc4c(c3)OCO4)n2)cc(OC)c1 | 8.03 | 100% | – | 84% | –
COc1cc(OC)cc(Oc2ccccc2-c2n[nH]c(Nc3ccc4c(c3)OCCO4)n2)c1 | 8.18 | – | 65% | 82% | –
Cc1cc(C)cc(Oc2ncccc2-c2n[nH]c(Nc3ccc4c(c3)OCO4)n2)c1 | 8.00 | – | 52% | 83% | –
COc1cccc(Nc2nnc(-c3cccnc3Nc3cc(OC)cc(OC)c3)[nH]2)c1 | – | – | – | – | pKi (Tubulin): 7.00
Fc1cc(F)cc(Nc2ncccc2-c2n[nH]c(Nc3ccc4c(c3)OCO4)n2)c1 | – | 28% | – | – | –
Fc1cccc(Oc2ncccc2-c2n[nH]c(Nc3ccc4c(c3)OCO4)n2)c1 | – | – | 43% | 37% | –
COc1cc(OC)cc(Oc2ncccc2-c2n[nH]c(Nc3ccc4c(c3)OCCO4)n2)c1 | 8.44 | 100% | 88% | 89% | pKi (Tubulin): 7.70
COc1ccc(CNc2ncccc2-c2n[nH]c(Nc3ccc4c(c3)OCCO4)n2)cc1 | – | 68% | – | 30% | –
COc1cc(OC)cc(Oc2ncccc2-c2n[nH]c(N(C)c3ccncc3)n2)c1 | – | 68% | – | 44% | –
COc1cc(OC)cc(Oc2ncccc2-c2nnc(Nc3ccc4c(c3)OCCO4)n2C)c1 | – | – | 30% | – | –
COc1cc(OC)cc(Oc2cnccc2-c2n[nH]c(Nc3ccc4c(c3)OCCO4)n2)c1 | 6.68 | – | 59% | 40% | –
COc1cc(OC)cc(Oc2ncccc2-c2n[nH]c(Nc3ccc4c(c3)OCO4)n2)c1 | 8.14 | 98% | 91% | 83% | pKi (Tubulin): 8.00
O=C1CCCN1CCCNc1ncccc1-c1n[nH]c(Nc2ccc3c(c2)OCCO3)n1 | – | 21% | – | – | –

Continued, in another order:

pEC50 (A-431 [1]) | inhibition (Tubulin (Bos taurus) [3]) | inhibition (Tubulin (Bos taurus) [4]) | SMILES | inhibition at 0.1 µM (A-431 [2]) | also measured
7.18 | – | 49% | COc1cc(OC)cc(Oc2ncccc2-c2n[nH]c(Nc3cccnc3)n2)c1 | 61% | –
– | – | 8% | COc1ccc(C(=O)Nc2n[nH]c(-c3cccnc3Oc3cc(OC)cc(OC)c3)n2)cc1 | – | –
< 5.00 | 33% | – | COc1cc(Nc2ncccc2-c2nc(Nc3cc(OC)ccc3OC)n[nH]2)cc(OC)c1 | 20% | –
– | 47% | – | COc1cc(Nc2ncccc2-c2nc(Nc3ccc(OC)cc3OC)n[nH]2)cc(OC)c1 | 17% | –
7.05 | 80% | – | COc1cccc(Nc2n[nH]c(-c3cccnc3Nc3cc(OC)cc(OC)c3)n2)c1 | 72% | GI50 (NCI-H460): 10 nM; GI50 (DU-145): 20 nM; GI50 (DLD-1): 70 nM; GI50 (A498): 60 nM; GI50 (LoVo): 20 nM; GI50 (A-431 [5]): 50 nM; GI50 (SNB-19): 150 nM; GI50 (NCI/ADR-RES): 150 nM; GI50 (SK-OV-3): 220 nM; GI50 (HCT-116): 400 nM
– | 4% | – | COc1cccc(Nc2n[nH]c(-c3cccnc3Nc3ccccc3)n2)c1 | – | –
– | – | 28% | COc1cccc(CN(C)c2n[nH]c(-c3cccnc3Oc3cc(OC)cc(OC)c3)n2)c1 | – | –
6.92 | 100% | – | COc1cccc(CNc2n[nH]c(-c3cccnc3Nc3cc(OC)cc(OC)c3)n2)c1 | 71% | –
– | 45% | – | COc1cc(Nc2n[nH]c(-c3cccnc3Nc3cc(OC)cc(OC)c3)n2)cc(OC)c1 | – | –
– | 88% | – | COc1ccc(CNc2n[nH]c(-c3cccnc3Nc3cc(OC)cc(OC)c3)n2)cc1 | 22% | –
– | – | 5% | COc1cc(OC)cc(Oc2ncccc2-c2nc(N(C)c3cccc(OC)c3)n[nH]2)c1 | – | –
7.21 | 87% | – | COc1cc(Nc2ncccc2-c2n[nH]c(Nc3ccc4c(c3)OCO4)n2)cc(OC)c1 | 85% | pKi (Tubulin): 7.22
7.08 | 73% | – | COc1ccc(Nc2n[nH]c(-c3cccnc3Nc3cc(OC)cc(OC)c3)n2)cc1 | 68% | –
7.68 | 100% | 100% | COc1cccc(Nc2n[nH]c(-c3cccnc3Oc3cc(OC)cc(OC)c3)n2)c1 | 83% | pKi (Tubulin): 7.30
7.64 | 99% | 73% | COc1cc(Nc2n[nH]c(-c3cccnc3Oc3cc(OC)cc(OC)c3)n2)cc(OC)c1 | 87% | –
– | 15% | – | COc1cc(Nc2ncccc2-c2nc(-c3cccc(OC)c3)n[nH]2)cc(OC)c1 | – | –
– | 0% | – | COc1cccc(Nc2n[nH]c(-c3cccnc3Nc3cc(F)cc(F)c3)n2)c1 | – | –
– | 35% | – | COc1cc(Nc2ncccc2-c2n[nH]c(Nc3ccc(N(C)C)cc3)n2)cc(OC)c1 | – | –
– | 44% | – | COc1cc(Nc2ncccc2-c2n[nH]c(Nc3cc(Cl)cc(Cl)c3)n2)cc(OC)c1 | – | –
6.93 | 95% | – | COc1cc(Nc2ncccc2-c2n[nH]c(Nc3ccc4c(c3)OCCO4)n2)cc(OC)c1 | 83% | –
– | 34% | – | COc1cc(Nc2ncccc2-c2n[nH]c(Nc3ccc(C#N)cc3)n2)cc(OC)c1 | – | –
6.89 | 76% | – | COc1cc(Nc2ncccc2-c2nc(Nc3ccc4c(c3)OCCO4)n(C)n2)cc(OC)c1 | 26% | –
– | 9% | – | COc1cccc(Cc2n[nH]c(-c3cccnc3Nc3cc(OC)cc(OC)c3)n2)c1 | – | –
< 5.00 | 5% | – | COc1cc(Nc2ncccc2-c2n[nH]c(Nc3ccccc3)n2)cc(OC)c1 | 22% | –
– | 86% | – | COc1ccc(CNc2n[nH]c(-c3cccnc3Oc3cc(OC)cc(OC)c3)n2)cc1 | 28% | –
8.00 | 100% | 83% | COc1cc(OC)cc(Oc2ncccc2-c2n[nH]c(Nc3cccc(O)c3)n2)c1 | 86% | –
– | 100% | – | COc1cccc(CNc2n[nH]c(-c3cccnc3Oc3cc(OC)cc(OC)c3)n2)c1 | 32% | –
– | 9% | – | COc1cccc(Nc2n[nH]c(-c3cccnc3Nc3cccc(OC)c3)n2)c1 | – | –
